Consider 8 compounds from ChEMBL document CHEMBL1130750, “Heteroatom-substitution as a strategy for increasing the potency of competitive NMDA antagonists” (Bioorg Med Chem Lett, 1998).

Each structure is given as a SMILES string.

In test [1] the target is Glutamate NMDA receptor. Kind of test: Compound was tested in vitro for inhibition of binding of [3H]-CGS- 19755 radioligand to NMDA receptor in rat brain membranes. The format is cell membranes.
For another test, the system named is Mus musculus. Briefly: In vivo minimum effective dose required to block NMDA induced lethality in Mice following i.p. administration. The following applies: ip, read-out: MED. The format is functional.
Test [2] has as its target Glutamate NMDA receptor. Kind of test: Compound was tested in vitro for its ability to inhibit depolarizations induced by 40 uM NMDA in a cortical slice (NMDA antagonist). Format: functional.
Test [3] concerns the target T1, Glutamate NMDA receptor (Rattus norvegicus) (UniProt P35439+Q00959+Q00960+Q00961+Q62645+Q8VHN2+Q9R1M7). Kind of test: In vitro percent inhibition of depolarizations induced by 10 uM NMDA in a cortical slice (NMDA antagonist). The format is functional.
The target in test [4] is T1, Glutamate NMDA receptor (Rattus norvegicus). Briefly: In vitro percent inhibition of depolarizations induced by 3.2 uM NMDA in a cortical slice ( NMDA antagonist). The format is functional.
Test [5] deals with Glutamate NMDA receptor. Kind of test: In vitro ability to inhibit depolarizations induced by 40 uM NMDA in a cortical slice (NMDA antagonist). The format is functional.
Test [6] concerns the target Glutamate NMDA receptor. Kind of test: Compound was tested in vitro for its ability to inhibit depolarizations induced by 40 uM NMDA in a cortical slice(NMDA antagonist). The format is functional.

Take `O=C(O)[C@H]1C[C@@H](COCc2nn[nH]n2)CCN1`: the IC50 (in general, the point on the concentration scale where inhibition reaches its midpoint) on Glutamate NMDA receptor [1] worked out at 8300 nM; against Glutamate NMDA receptor [2], 34.5 µM. Moreover, in the test on Mus musculus, the minimal effective dose came to 80 mg/kg.

The compound `O=C(O)[C@H]1C[C@H](Sc2nn[nH]n2)CCN1` gave an IC50 at Glutamate NMDA receptor [1] of 75 nM. In addition, the figures for the inhibition in test [3] and in test [4] were 75% and 20%, respectively.

In turn, `O=C(O)[C@H]1C[C@@H](CSc2nn[nH]n2)CCN1` registered an IC50 on Glutamate NMDA receptor [1] of 1300 nM.

Take `O=C(O)[C@H]1C[C@@H](OCc2nn[nH]n2)CCN1`: the IC50 on Glutamate NMDA receptor [1] came to 280 nM; on Glutamate NMDA receptor [2], 4.7 µM. In the test on Mus musculus, the minimal effective dose was found to be 2.5 mg/kg.

As for `O=C(O)[C@H]1C[C@@H](Sc2nn[nH]n2)CCN1`, the IC50 at Glutamate NMDA receptor [1] stood at 110 nM.

As to `O=C(O)[C@H]1C[C@@H](CCCc2nnn[nH]2)CCN1`, the IC50 against Glutamate NMDA receptor [5] worked out at 12.4 µM. For the same compound, the minimal effective dose in the test with Mus musculus stood at 10 mg/kg.

`O=C(O)[C@H]1C[C@@H](Cc2nnn[nH]2)CCN1` came in with an IC50 on Glutamate NMDA receptor [1] of 17 nM. Further, the minimal effective dose with Mus musculus was determined as 5 mg/kg.

For the compound `O=C(O)[C@H]1C[C@@H](CCc2nnn[nH]2)CCN1`, the values for the IC50 at Glutamate NMDA receptor [1] and against Glutamate NMDA receptor [6] were 2300 nM and 8.1 µM, respectively. Besides, the minimal effective dose with Mus musculus is 20 mg/kg.
